Where “and” joins values, the source holds several entries; their conditions need not be identical. Equal entries are not always repeated.
Key:
Common chickweed (STEME) = assay: pre-emergence test, weed control; format: in vivo, Stellaria media; details: pre-emergent, 28 DAT; BFL at 187.5 g, PYX at 90 g, combination of both
Method: (§1) Test compositions containing the test compounds were diluted with water to provide the appropriate test rate concentrations.
(§2) For pre-emergence testing, four disposable fiber flats (6 inch by 10 inch) for each rate of application of each herbicide solution were filled with top soil, to which seeds of each species were planted in furrows made by a template pressed on the top of the soil. The furrows were covered with soil after planting the seed and were watered well before application of the test compounds.
Fiber flats designated for treatment were placed in a spray chamber having a static platform and a movable sprayer and the height of the spray nozzle was 10.5 inches above the soil level. Once the sprayer was calibrated using water for spray volume of 30 gallons per acre, flats were sprayed with sprayer at a speed to receive a coverage equivalent of 30 gallons per acre. […]
The control of weeds was evaluated in each experimental test at 21 for wheat and 28 days after treatment (DAT) for all species. Data were analyzed using Minitab software at 95% confidence interval. […] Percent control was determined by a method similar to the 0 to 100 rating system disclosed in “Research Methods in Weed Science,” 2nd ed., B. Truelove, Ed.; Southern Weed Science Society; Auburn University, Auburn, Ala., 1977. […]

Jimsonweed (DATST) = assay: pre-emergence test, weed control; format: in vivo, Datura stramonium; details: pre-emergent, 28 DAT, combination of both
Method: as §1, §2
(§3) Fiber flats designated for treatment were placed in a spray chamber having a static platform and a movable sprayer and the height of the spray nozzle was 10.5 inches above the soil level. Once the sprayer was calibrated using water for spray volume of 30 gallons per acre, flats were sprayed with sprayer at a speed to receive a coverage equivalent of 30 gallons per acre. The application rates are those shown in the Tables below for the individual herbicidal solutions and the herbicide compositions of this invention. The pre-emergence flats were immediately placed in the greenhouse and watered lightly after treatment. Thereafter they were regularly watered and fertilized for the duration of the test.
(§4) The control of weeds was evaluated in each experimental test at 21 for wheat and 28 days after treatment (DAT) for all species. Data were analyzed using Minitab software at 95% confidence interval. The results, shown as an average of the replications, were compared with results observed in untreated control flats in the same tests. Percent control was determined by a method similar to the 0 to 100 rating system disclosed in “Research Methods in Weed Science,” 2nd ed., B. Truelove, Ed.; Southern Weed Science Society; Auburn University, Auburn, Ala., 1977. The rating system is as follows in Table 1.

Wild oat (AVEFA) = assay: pre-emergence test, weed control; format: in vivo, Avena fatua; details: pre-emergent, 21 DAT, rate g ai/ha by row: r4 94, r5 125, r6 250, r7 125, r8 250, r9 500, r10 94+125, r11 125+125, r12 94+250, r13 125+250, r14 94+500, r15 125+500
Method: as §1, §2, §3, §4

Velvetleaf (ABUTH) = assay: pre-emergence test, weed control; format: in vivo, Abutilon theophrasti; details: pre-emergent, 21 DAT, rate g ai/ha by row: r4 94, r5 125, r6 250, r7 125, r8 250, r9 500, r10 94+125, r11 125+125, r12 94+250, r13 125+250, r14 94+500, r15 125+500
Method: as §1, §2, §3, §4

Hemp sesbania (SEHE8) = assay: pre-emergence test, weed control; format: in vivo; details: pre-emergent, 28 DAT; BFL at 187.5 g, PYX at 90 g, combination of both
How it was run: (§5)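 Seeds sown in top-soil flats and watered, then sprayed pre-emergence at 30 gallons per acre from a nozzle 10.5 inches above soil; flats kept in the greenhouse with regular watering and fertilizing. Percent control (0–100 scale versus untreated flats) scored at 21 DAT for wheat and 28 DAT for all species, averaged over replicates.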

Large crabgrass (DIGSA) = assay: pre-emergence test, weed control; format: in vivo; details: pre-emergent, 28 DAT; rate g ai/ha by row: r4 94, r5 50, r6 100, r7 52.5, r8 70, r9 94+52.5, r10 94+70, r11 50+52.5, r12 50+70, r13 100+52.5, r14 100+70
How it was run: as §5

Rice flatsedge (CYPIR) = assay: pre-emergence test, weed control; format: in vivo; details: pre-emergent, 28 DAT; rate g ai/ha by row: r5 94, r6 125, r7 250, r8 3.28, r9 6.56, r10 13.1, r11 94+3.28, r12 94+6.56, r13 94+13.1, r14 125+3.28, r15 125+6.56, r16 125+13.1
How it was run: as §5

redroot pigweed (AMARE) = assay: post-emergence test, weed control; format: in vivo; details: post-emergent, 28 DAT, COC 1%, rate g ai/ha by row: r5 94, r6 125, r7 250, r8 1.25, r9 2.5, r10 5, r11 94+1.25, r13 125+1.25, r15 94+2.5, r17 125+2.5, r19 94+5, r21 125+5
Method: as §1
For post-emergence testing, seeds of each species for each rate of application of each herbicide solution were planted in 7.5 cm×7.5 cm plastic pots filled with potting soil. The seeds were germinated and the resulting plants were allowed to grow in a greenhouse until they reached a growth stage, such as height, suitable for testing. […] Pots of post-emergent treated plants were returned to the greenhouse and not watered for 24 hours after treatment. Thereafter they were regularly watered and fertilized for the duration of the test.
The control of weeds was evaluated in each experimental test at 21 for wheat and 28 days after treatment (DAT) for all species. […] The rating system is as follows in Table 1.

Green foxtail (SETVI) = assay: pre-emergence test, weed control; format: in vivo, Setaria viridis; details: pre-emergent, 28 DAT
Method: as §1, §2, §3, §4

Blackgrass (ALOMY) = assay: pre-emergence test, weed control; format: in vivo; details: pre-emergent, 28 DAT
How it was run: as §5

Yellow foxtail (SETLU) = assay: pre-emergence test, weed control; format: in vivo; details: pre-emergent, 28 DAT, (−)-BFL >95% e.e., rate g ai/ha by row: r6 62, r7 125, r8 125, r9 250, r10 445, r11 890, r12 45, r13 90, r14 62+125, r15 125+125, r16 62+250, r17 125+250, r18 62+445, r19 125+445, r20 62+890, r21 125+890, r22 62+45, r23 125+45, r24 62+90, r25 125+90
How it was run: as §5

[1] = (+)-BFL >95% e.e., rate g ai/ha by row: r6 62.5, r7 125, r8 62.5, r9 125, r10 222, r11 445, r12 22.5, r13 45, r14 62.5+62.5, r15 125+62.5, r16 62.5+125, r17 125+125, r18 62.5+222, r19 125+222, r20 62.5+445, r21 125+445, r22 62.5+22.5, r23 125+22.5, r24 62.5+45, r25 125+45, 62.5 g ai/ha
[2] = (+)-BFL >95% e.e., rate g ai/ha by row: r6 62.5, r7 125, r8 62.5, r9 125, r10 222, r11 445, r12 22.5, r13 45, r14 62.5+62.5, r15 125+62.5, r16 62.5+125, r17 125+125, r18 62.5+222, r19 125+222, r20 62.5+445, r21 125+445, r22 62.5+22.5, r23 125+22.5, r24 62.5+45, r25 125+45, 125 g ai/ha
[3] = (−)-BFL >95% e.e., rate g ai/ha by row: r6 62, r7 125, r8 125, r9 250, r10 445, r11 890, r12 45, r13 90, r14 62+125, r15 125+125, r16 62+250, r17 125+250, r18 62+445, r19 125+445, r20 62+890, r21 125+890, r22 62+45, r23 125+45, r24 62+90, r25 125+90, 125 g ai/ha
[4] = (−)-BFL >95% e.e., rate g ai/ha by row: r6 62, r7 125, r8 125, r9 250, r10 445, r11 890, r12 45, r13 90, r14 62+125, r15 125+125, r16 62+250, r17 125+250, r18 62+445, r19 125+445, r20 62+890, r21 125+890, r22 62+45, r23 125+45, r24 62+90, r25 125+90, 250 g ai/ha

CCC(Oc1ccc(F)c(C(F)(F)F)c1)C(=O)NCc1ccccc1 (racemic) [BFL, 2-[4-fluoro-3-(trifluoromethyl)phenoxy]-N-(phenylmethyl)butanamide]
control of common chickweed (Common chickweed (STEME)): 6% | control of jimsonweed (Jimsonweed (DATST); BFL at 62.5 g, PTX at 90 g): 4% | control of jimsonweed (Jimsonweed (DATST); BFL at 187.5 g, PYX at 90 g): 30% | percentage of weed control, Wild Oat AVEFA (Wild oat (AVEFA); 94 g ai/ha): 10% | percentage of weed control, Wild Oat AVEFA (Wild oat (AVEFA); 125 g ai/ha): 9% | percentage of weed control, Velvetleaf ABUTH (Velvetleaf (ABUTH); 94 g ai/ha): 10% | percentage of weed control, Velvetleaf ABUTH (Velvetleaf (ABUTH); 125 g ai/ha): 15% | percentage of weed control, Velvetleaf ABUTH (Velvetleaf (ABUTH); 250 g ai/ha): 14% | control of hemp sesbania (Hemp sesbania (SEHE8)): 28% | percentage of weed control, DIGSA (Large crabgrass (DIGSA)): 25% | percentage of weed control, Rice flatsedge CYPIR (Rice flatsedge (CYPIR)): 71% and 88% and 100% | percentage of weed control, Redroot pigweed AMARE (redroot pigweed (AMARE); BFL at 94 g ai/ha): 61% | percentage of weed control, Redroot pigweed AMARE (redroot pigweed (AMARE); BFL at 125 g ai/ha): 60% | percentage of weed control, Redroot pigweed AMARE (redroot pigweed (AMARE); BFL at 250 g ai/ha): 86%

CC1(C)CON(Cc2ccc(Cl)cc2Cl)C1=O [DCI, 2-(2,4-dichlorophenyl)methyl-4,4-dimethyl-3-isoxazolidinone]
percentage of weed control, SETVI (Green foxtail (SETVI); [1]): 91% | percentage of weed control, SETVI (Green foxtail (SETVI); [2]): 99% | percentage of weed control, SETVI (Green foxtail (SETVI); [3]): 98% | percentage of weed control, SETVI (Green foxtail (SETVI); [4]): 99% | percentage of weed control, ALOMY (Blackgrass (ALOMY); [1]): 65% | percentage of weed control, ALOMY (Blackgrass (ALOMY); [2]): 64% | percentage of weed control, ALOMY (Blackgrass (ALOMY); [3]): 98% | percentage of weed control, ALOMY (Blackgrass (ALOMY); [4]): 99% | percentage of weed control, SETLU (Yellow foxtail (SETLU); 125 g ai/ha): 75% | percentage of weed control, SETLU (Yellow foxtail (SETLU); 250 g ai/ha): 96%

— patent US11412737B2, “Mixtures of beflubutamid or optically enriched forms thereof with a second herbicide” (FMC Corporation, priority 2016, dated 2022)
